Key:
bacterial biofilm = experiment: In vitro testing on bacterial biofilm (inhibition and/or disruption); format: cell-based; conditions: in vitro testing
Protocol: (§1) Two types of biofilm assays were performed: an inhibition assay and a disruption assay. The inhibition assay assesses the compound's ability to prevent biofilm development, while the disruption assay assesses the compound's ability to break up an existing mature biofilm.
(§2) All bacterial biofilm solutions were prepared in Tryptic Soy Broth (TSB), supplemented with 1% glucose (henceforth referred to as TSB-G). All subsequent procedures were performed in a manner that maintained sterility. A solution of each amino acid or an amino acid derivative to be tested was prepared in weight to volume concentrations ranging from 0.1-5.0%. Amino acids and amino acid derivatives were also tested in combinations. Compound solutions were homogenized with gentle agitation in the dark (4° C., 24 hours) before use.
(§3) 32 Amino acids and 2 amino acid derivatives of the amino acid serine that occur freely in human blood were tested. […] 31 of the 32 amino acids that were tested were the L-Isomers. Glycine has no stereoisomers. The 2 amino acid derivatives, ethanolamine and phosphoethanolamine were also tested. All biofilm assays were performed using 384-well non-tissue culture-treated polystyrene plates. The fungal species tested are as follows: Candida albicans, Candida guilliermondii, Candida parapsilosis, Candida glabrata, Candida tropicalis and Candida dubliniensis. The bacterial species tested are as follows: Staphylococci (standard wild type and methicillin-resistant strain USA300), Escherichia coli, Pseudomonas aeruginosa and Staphylococcus epidermidis.
(§4) Bacterial strains were streaked on Blood Agar plates (5% sheep blood in Tryptic Soy Broth) and incubated at 37° C. for 24 hours. A single colony from each strain to be tested was inoculated in a TSB broth and grown for 12 hours, at 37° C. with shaking (225 rpm). For the bacterial biofilm inhibition assays, 1 μL of saturated overnight cell culture was added to either 80 μL of TSB-G, or TSB-G supplemented with the amino acid compound solution to be tested, in a 384-well plate. The cells were allowed to adhere to the plate for 60 minutes at 37° C. without shaking. The media was carefully aspirated and 80 μL of TSB-G, or TSB-G supplemented with the amino acid compound solution was added to the plate. The plate was further incubated for 24 hours at 37° C. without shaking. Media was carefully aspirated and the biofilm was measured by optical density at 600 nm. Eight or twelve replicates were performed for each tested condition and the reported values are normalized to the control (TSB-G media only). For the bacterial biofilm disruption assays, 80 µL of TSB-G was added to the plate, along with 1 μL of overnight cell culture. The cells were allowed to adhere to the plate for 60 minutes at 37° C. with no shaking. The media was carefully aspirated and 80 μL of TSB-G was added to the plate. The plate was further incubated for 24 hours at 37° C. with no shaking. Media was carefully aspirated from the mature biofilm and 80 μL of TSB-G, or TSB-G supplemented with the amino acid to be tested, was gently added to the plate. The plate was further incubated for 24 hours at 37° C. without shaking. Media was aspirated and the biofilm was measured by optical density at 600 nm. Twelve replicates were performed for each tested condition and the reported values are normalized to the control (TSB-G media only).

[1] = system: bacterial (S. aureus) biofilm and fungal biofilm (C. albicans); experiment: Biofilm inhibition assay, bacterial and fungal taken together; format: cell-based; conditions: symbol marks the assay
Protocol: as §1, §2, §3
Fungal strains were streaked on Yeast Peptone Dextrose (YPD) agar plates and incubated at 30° C. for 48 hours. A single colony from each strain to be tested was inoculated into YPD broth and grown for 12 hours at 30° C., shaking at 225 rpm. […] The cells were allowed to adhere to the plate for 90 minutes at 37° C. with shaking (350 rpm). […] The plate was further incubated for 24 hours at 37° C. with shaking (350 rpm). Media was carefully aspirated and the biofilm was measured by optical density at 600 nm. […] The cells were allowed to adhere to the plate for 90 minutes at 37° C. with shaking (350 rpm). […] The plate was further incubated for 24 hours at 37° C. with shaking (350 rpm). […] The plate was further incubated for 24 hours at 37° C. with shaking (350 rpm). Media was carefully aspirated, and the biofilm was measured by optical density at 600 nm.
as §4, with “plate.” for “plate. The plate was further incubated for 24 hours at 37° C. without shaking. Media was aspirated and the biofilm was measured by optical density at 600 nm. Twelve replicates were performed for each tested condition and the reported values are normalized to the control (TSB-G media only).”

[2] = system: bacterial (S. aureus) biofilm; experiment: Bacterial biofilm inhibition assay; format: cell-based, Staphylococcus aureus
Protocol: as §1, §2, §3, §4

[3] = Table D, Neutral = no effect on the biofilm
[4] = Table E, in the absence of an infusion of glycerol
[5] = Table F, in the presence of a sufficient concentration of glycerol

| Compound | effect on bacterial biofilm (in words) (bacterial biofilm) | Neutral (square: Inhibition Biofilm Assay) [1, 3] | Neutral (square: Inhibition Biofilm Assay) [1, 4] | Neutral (square: Inhibition Biofilm Assay) [1, 5] | Promote B Biofilm (squares: Inhibition Biofilm Assay) ([2]; Table D, 0.1 to 5.0%) | Promote B Biofilm (squares: Inhibition Biofilm Assay) [2, 4] | Reduce or Inhibit B Biofilm (squares: Inhibition Biofilm Assay) ([2]; Table D, 0.1 to 5.0%) | Reduce or Inhibit B Biofilm (squares: Inhibition Biofilm Assay) [2, 5] |
| --- | --- | --- | --- | --- | --- | --- | --- | --- |
| NCCC[C@H](N)C(=O)O [Ornithine, L-ornithine] | promoted bacterial biofilm formation | ▪ (Single square [ie. ▪] signifies little effect on the Inhibition Biofilm Assay (from about 10 to less than 30%)) | ▪ (Single square [ie. ▪] signifies little effect on the Inhibition Biofilm Assay (from about 10 to less than 30%)) | ▪ (Single square [ie. ▪] signifies little effect on the Inhibition Biofilm Assay (from about 10 to less than 30%)) | – | – | – | – |
| N=C(N)NCCC[C@H](N)C(=O)O [Arginine, L-arginine] | promoted bacterial biofilm formation | – | – | – | ▪ (Single square [ie. ▪] signifies little effect on the Inhibition Biofilm Assay (from about 10 to less than 30%)) | ▪ (Single square [ie. ▪] signifies little effect on the Inhibition Biofilm Assay (from about 10 to less than 30%)) | – | – |
| NC(=O)C[C@H](N)C(=O)O [Asparagine, L-asparagine] | promoted bacterial biofilm formation | – | – | – | ▪ (Single square [ie. ▪] signifies little effect on the Inhibition Biofilm Assay (from about 10 to less than 30%)) | ▪ (Single square [ie. ▪] signifies little effect on the Inhibition Biofilm Assay (from about 10 to less than 30%)) | – | – |
| N[C@@H](Cc1ccccc1)C(=O)O [Phenylalanine, L-phenylalanine] | promoted bacterial biofilm formation | – | – | – | ▪ (Single square [ie. ▪] signifies little effect on the Inhibition Biofilm Assay (from about 10 to less than 30%)) | ▪ (Single square [ie. ▪] signifies little effect on the Inhibition Biofilm Assay (from about 10 to less than 30%)) | – | – |
| O=C(O)[C@@H]1CCCN1 [Proline, L-proline] | promoted bacterial biofilm formation | ▪ (Single square [ie. ▪] signifies little effect on the Inhibition Biofilm Assay (from about 10 to less than 30%)) | ▪ (Single square [ie. ▪] signifies little effect on the Inhibition Biofilm Assay (from about 10 to less than 30%)) | ▪ (Single square [ie. ▪] signifies little effect on the Inhibition Biofilm Assay (from about 10 to less than 30%)) | – | – | – | – |
| CSCC[C@H](N)C(=O)O [Methionine, L-methionine] | promoted bacterial biofilm formation | – | – | – | ▪ (Single square [ie. ▪] signifies little effect on the Inhibition Biofilm Assay (from about 10 to less than 30%)) | ▪ (Single square [ie. ▪] signifies little effect on the Inhibition Biofilm Assay (from about 10 to less than 30%)) | – | – |
| Cn1cnc(C[C@H](N)C(=O)O)c1 [1-Methylhistidine, 1-methyl-L-histidine] | – | ▪ (Single square [ie. ▪] signifies little effect on the Inhibition Biofilm Assay (from about 10 to less than 30%)) | ▪ (Single square [ie. ▪] signifies little effect on the Inhibition Biofilm Assay (from about 10 to less than 30%)) | ▪ (Single square [ie. ▪] signifies little effect on the Inhibition Biofilm Assay (from about 10 to less than 30%)) | – | – | – | – |
| NCC(=O)O [Glycine, L-glycine] | promoted bacterial biofilm formation | – | – | – | ▪ (Single square [ie. ▪] signifies little effect on the Inhibition Biofilm Assay (from about 10 to less than 30%)) | ▪ (Single square [ie. ▪] signifies little effect on the Inhibition Biofilm Assay (from about 10 to less than 30%)) | – | – |
| C[C@@H](O)[C@H](N)C(=O)O [Threnonine, L-threonine] | promoted bacterial biofilm formation | – | – | – | – | – | – | – |
| NCCS(=O)(=O)O [Taurine, L-taurine] | promoted bacterial biofilm formation | – | – | – | – | – | – | – |
| NC(=O)NCCC[C@H](N)C(=O)O [Citrulline, L-citrulline] | promoted bacterial biofilm formation | – | – | – | ▪ (Single square [ie. ▪] signifies little effect on the Inhibition Biofilm Assay (from about 10 to less than 30%)) | ▪ (Single square [ie. ▪] signifies little effect on the Inhibition Biofilm Assay (from about 10 to less than 30%)) | – | – |
| CC[C@H](C)[C@H](N)C(=O)O [Isoleucine, L-isoleucine] | promoted bacterial biofilm formation | – | – | – | ▪ (Single square [ie. ▪] signifies little effect on the Inhibition Biofilm Assay (from about 10 to less than 30%)) | ▪ (Single square [ie. ▪] signifies little effect on the Inhibition Biofilm Assay (from about 10 to less than 30%)) | – | – |
| CCC(N)C(=O)O (stereo not shown) [2 Aminobutyric Acid, 2-aminobutyric acid] | – | ▪ (Single square [ie. ▪] signifies little effect on the Inhibition Biofilm Assay (from about 10 to less than 30%)) | ▪ (Single square [ie. ▪] signifies little effect on the Inhibition Biofilm Assay (from about 10 to less than 30%)) | ▪ (Single square [ie. ▪] signifies little effect on the Inhibition Biofilm Assay (from about 10 to less than 30%)) | – | – | – | – |
| NCCC(=O)O [Beta-Alanine, Beta-alanine] | antibacterial biofilm effect | – | – | – | – | – | ▪ (Single square [ie. ▪] signifies little effect on the Inhibition Biofilm Assay (from about 10 to less than 30%)) | ▪ (Single square [ie. ▪] signifies little effect on the Inhibition Biofilm Assay (from about 10 to less than 30%)) |
| NCCCC[C@H](N)C(=O)O [Lysine, L-lysine] | promoted bacterial biofilm formation | – | – | – | ▪ (Single square [ie. ▪] signifies little effect on the Inhibition Biofilm Assay (from about 10 to less than 30%)) | ▪ (Single square [ie. ▪] signifies little effect on the Inhibition Biofilm Assay (from about 10 to less than 30%)) | – | – |
